Values quoted from earlier work, collected in patent publication US20020103139A1, “Solid self-emulsifying controlled release drug delivery system composition for enhanced delivery of water insoluble phytosterols and other hydrophobic natural compounds for body weight and cholestrol level control” (priority 2000, published 2002).

Experiments:
[1] = treated patients versus placebo
[2] = doses of 700 and 300 mg

## CCN[C@@H](C)Cc1cccc(C(F)(F)F)c1 [dexfenfluramine]
[1]
  average weight lost more than with placebo: 5 pounds

## CCNC(C)Cc1cccc(C(F)(F)F)c1 (stereo not drawn) [fenfluramine]
[1]
  average weight lost more than with placebo: 5 pounds

## CC[C@H](CC[C@@H](C)[C@H]1CC[C@H]2[C@@H]3CC[C@H]4C[C@@H](O)CC[C@]4(C)[C@H]3CC[C@]12C)C(C)C [sitostanol]
[2]
  difference in cholesterol reduction between doses: No significant difference
